Values joined by “and” are separate entries in the source; they are usually repeats but may differ in a detail not shown here. Equal entries are not always repeated.
Assays:
[1] = system: gene No. 117 in the gene panel; experiment: ATAC-PCR gene expression in liver of partially hepatectomized rats administered L-alanine, gene No. 117; type: in vivo, rat
Method: (§1) L-alanine is known to have effect of accelerating liver regeneration (Maezono K et al., Hepatology 24(5), 1996, Effect of Alanine on D-Galactosamine-Induced Acute Liver Failure in Rats; Japanese Patent Laid-open Publication No. 5-229940). Therefore, rats were subjected to partial hepatectomy and orally administered with L-alanine at 18 and 21 hours after the hepatectomy, and then gene expressions at 24 hours after the hepatectomy were examined.
(§2) Five 6 week-old F344 male rats (120 g) were preliminarily fed for 6 days by giving feed CRF-1 (Oriental Yeast) and water and then divided into 2 groups (Group 1 and Group 2) each consisting of rats with the same body weight. At 24 hours before dissection, 70% partial hepatectomy was performed by the method by Higgins-Anderson (Higgins, G M and Anderson, R M, Arch. Pathol. 12, 186-191, 1931). On the day of autopsy, the rats were starved for 6 hours before dissection. […]
(§3) Gene expressions in rat liver in each group were measured by ATAC-PCR. […] In ATAC-PCR, among the genes in the gene panel, 117 types of which expression could be measured by ATAC-PCR using the restriction enzyme MboI were measured (those except for Nos. 12, 49, 52, 55, 58, 59, 61, 69, 73, 77, 83, 90, 93, 101, 102, 108, 130, 134, 135 and 136 mentioned in Table 1).
(§4) Further, the gene expressions in Groups 1 and 2 were measured by ATAC-PCR for the genes of the gene panel and compared. […]

[2] = system: rat genes involved in L-alanine metabolism; experiment: Expression analysis of genes involved in L-alanine metabolism by Taqman PCR (SYBR Green) with L-alanine administration during liver regeneration; type: in vivo; details: L-alanine 2 g/10 ml/kg BW orally 18 and 21 hr after 70% partial hepatectomy vs 0.3% CMC control, liver at 24 hr, values only in FIGS. 2 to 4
Method: Expression changes were examined with L-alanine administration during liver regeneration regarding 59 types of rat genes involved in L-alanine metabolism extracted in Example 2.
Five 6 week-old F344 male rats (120 g) were fed for 6 days by giving feed CRF-1 (Oriental Yeast) and water and then divided into 2 groups (Group 1 and Group 2) each consisting of rats with the same body weight. At 24 hours before dissection, 70% partial hepatectomy (left lobe and intermediate lobe) was performed by the method of Higgins-Anderson (Higgins, G M and Anderson, R M, Arch. Pathol. 12, 186-191, 1931). On the day of autopsy, the rats were starved for 6 hours before the dissection. At 18 and 21 hours after the partial hepatectomy, 2 g/10 ml/kg BW of L-alanine was orally administered as an aqueous solution containing 0.3% carboxymethylcellulose (Group 1), and only 0.3% carboxymethylcellulose was orally administered as a control (Group 2).
Dissection was performed at 24 hours after the partial hepatectomy. After the rats were killed by bleeding under anesthesia, livers were extracted, weighed, cryopreserved and then subjected to the mRNA expression measurement by the Taqman PCR (SYBR Green) method. […]
All the Taqman PCR (SYBR Green) reactions were performed in duplicate, and the cycle threshold (CT) was calculated. […]

[3] = system: amino acid transporter system A (ATA2); experiment: ATAC-PCR gene expression in liver of partially hepatectomized rats administered L-alanine, gene No. 5; type: in vivo, rat
Method: as §1, §2, §3, §4

[4] = system: leukemia-associated cytosolic phosphoprotein stathmin; experiment: ATAC-PCR gene expression in liver of partially hepatectomized rats administered L-alanine, gene No. 67; type: in vivo, rat
Method: as §1, §2, §3, §4

liver regeneration = details: Maezono K et al., Hepatology 24(5), 1996; JP 5-229940; cited from earlier work
[5] = system: high mobility group protein 2; experiment: ATAC-PCR gene expression in liver of partially hepatectomized rats administered L-alanine, gene No. 17; type: in vivo, rat
Method: as §1, §2, §3, §4

deoxy-UTPase (dUTPase) = experiment: ATAC-PCR gene expression in liver of partially hepatectomized rats administered L-alanine, gene No. 68; type: in vivo, rat
Method: as §1, §2, §3, §4

[6] = system: liver proliferating cell nucleus antigen (PCNA); experiment: PCNA labeling index in liver of partially hepatectomized rats administered L-alanine; type: in vivo, rat
Method: as §1
Five 6 week-old F344 male rats (120 g) were preliminarily fed for 6 days by giving feed CRF-1 (Oriental Yeast) and water and then divided into 2 groups (Group 1 and Group 2) each consisting of rats with the same body weight. At 24 hours before dissection, 70% partial hepatectomy was performed by the method by Higgins-Anderson (Higgins, G M and Anderson, R M, Arch. Pathol. 12, 186-191, 1931). On the day of autopsy, the rats were starved for 6 hours before dissection. At 6 and 3 hours before dissection, 2 g/10 ml/kg of L-alanine was orally administered as an aqueous solution containing 0.3% aqueous carboxymethylcellulose (CMC).
After the rats were killed by bleeding under anesthesia, the dissection was performed. Liver was extracted, weighed, cryopreserved, and then subjected to the mRNA expression measurement by the ATAC-PCR method. Further, liver samples were prepared to measure the liver proliferating cell nucleus antigen (PCNA) levels.
Further, the livers of rats administered with L-alanine were stained by using anti-PCNA antibodies (antibodies directed to proliferating cell nuclear antigen (PCNA), a replication factor that accelerates activity of DNA polymerase ä), and the PCNA labeling index was measured by the method of Tanaka et al. (Tanaka et al., Byori to Rinsho, 9 (6): 791-798, 1991).
Due to the L-alanine administration, the PCNA labeling index in the livers elevated as compared with the livers of the non-administered rats (Table 2). In Table 2, Ala+represents the L-alanine-administered group, and Ala-represents the L-alanine non-administered group. Thus, hepatocytes proliferation accelerating effect due to the L-alanine administration was observed.

[7] = system: liver nuclear protein p47; experiment: ATAC-PCR gene expression in liver of partially hepatectomized rats administered L-alanine, gene No. 46; type: in vivo, rat
Method: as §1, §2, §3, §4

nuclear RNA helicase = experiment: ATAC-PCR gene expression in liver of partially hepatectomized rats administered L-alanine, gene No. 36; type: in vivo, rat
Method: as §1, §2, §3, §4

ATA2 = molecular target: T1, ATA2 (Rattus norvegicus, UniProt Q9JHE5); details: Ala transport activity of ATA2 inhibited by treatment with MeAIB; Freeman T L et al., Hepatology 1999; cited from earlier work
T1 sequence (Q9JHE5 1-504): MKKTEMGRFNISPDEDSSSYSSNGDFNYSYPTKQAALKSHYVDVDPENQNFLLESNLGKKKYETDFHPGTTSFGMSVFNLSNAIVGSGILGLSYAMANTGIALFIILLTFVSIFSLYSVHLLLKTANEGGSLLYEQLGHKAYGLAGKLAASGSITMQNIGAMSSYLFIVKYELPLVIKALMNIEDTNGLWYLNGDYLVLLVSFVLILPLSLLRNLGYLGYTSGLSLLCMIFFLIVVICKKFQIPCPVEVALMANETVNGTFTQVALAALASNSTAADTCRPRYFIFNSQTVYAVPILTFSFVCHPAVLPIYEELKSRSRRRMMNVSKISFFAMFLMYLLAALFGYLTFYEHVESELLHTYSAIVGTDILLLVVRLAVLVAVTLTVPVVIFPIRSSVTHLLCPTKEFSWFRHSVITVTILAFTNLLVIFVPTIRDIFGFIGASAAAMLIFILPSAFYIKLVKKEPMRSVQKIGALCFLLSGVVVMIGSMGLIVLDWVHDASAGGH

[8] = ATAC-PCR, liver 24 hr after hepatectomy, L-alanine-administered vs non-administered group
[9] = liver 24 hr after hepatectomy with L-alanine, ratio to gene panel expression at 0 hour
[10] = individual rats 2-1, 2-2 (Group 2, taken as Ala+), L-alanine 2 g/10 ml/kg orally 18 and 21 hr after 70% partial hepatectomy, liver at 24 hr

In the case of `C[C@H](N)C(=O)O` [L-alanine], the “Ala+, 24 hr/Ala-, 24 hr expression ratio, gene No. 117” value [1, 8] is reported as 3.2, the “Ala+ 24 hr relative expression value based on expression before hepatectomy, gene No. 117” value [1, 9] is reported as 0.6 and the “Expression level of genes involved in L-alanine metabolism (genes of Table 7 and Nos. 139, 140, 151)” value [2] is reported as “changes in expression level due to the L-alanine administration were observed”. For the same molecule, the “Ala+, 24 hr/Ala-, 24 hr expression ratio, gene No. 5” value ([3]; 24 h) was 4.8, the “Ala+ 24 hr relative expression value based on expression before hepatectomy, gene No. 5” value [3, 9] was 4.8 and the “Ala+, 24 hr/Ala-, 24 hr expression ratio, gene No. 67” value [4, 8] was 4.2. For the same molecule, the “Ala+ 24 hr relative expression value based on expression before hepatectomy, gene No. 67” value [4, 9] was 25.6, the “effect on liver regeneration” value (liver regeneration) was “accelerate liver regeneration” and the “Ala+, 24 hr/Ala-, 24 hr expression ratio, gene No. 17” value [5, 8] was 5.5. The “Ala+ 24 hr relative expression value based on expression before hepatectomy, gene No. 17” value [5, 9] was 228.3, the “Ala+, 24 hr/Ala-, 24 hr expression ratio, gene No. 68” value (deoxy-UTPase (dUTPase); [8]) was 3.5 and the “Ala+ 24 hr relative expression value based on expression before hepatectomy, gene No. 68” value (deoxy-UTPase (dUTPase); [9]) was 24.9. For the same molecule, the “PCNA labeling index in the livers as compared with non-administered rats” value ([6]; L-alanine orally 18 and 21 hr after partial hepatectomy, liver at 24 hr) was “elevated”, the “PCNA Labeling Index (%), Mean” value ([6]; group mean of rats 2-1, 2-2 (taken as Ala+), non-administered group mean 0.6%, liver 24 hr after hepatectomy) was 64.7% and the “PCNA Labeling Index (%)” value [6, 10] was 65.5% and 64.0%. For the same molecule, the “PCNA Negative cells” value [6, 10] was 247 and 240, the PCNA positive cells [6, 10] was 468 and 426 and the “Ala+, 24 hr/Ala-, 24 hr expression ratio, gene No. 46” value [7, 8] was 4.4. For the same molecule, the “Ala+ 24 hr relative expression value based on expression before hepatectomy, gene No. 46” value [7, 9] was 11.4, the “Ala+, 24 hr/Ala-, 24 hr expression ratio, gene No. 36” value (nuclear RNA helicase; [8]) was 4.6 and the “Ala+ 24 hr relative expression value based on expression before hepatectomy, gene No. 36” value (nuclear RNA helicase; [9]) was 25.8.

In the case of `CNC(C)(C)C(=O)O` [MeAIB, alpha-(methylamino)isobutyric acid], the “uptake of [3H]thymidine into DNA” value (ATA2) is given as “decreased”.

Source: patent US20060105329A1, “Gene panel participating in liver regeneration” (priority 2001, published 2006)
